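Cultured in 96-well plates, cells were exposed to test compound for 48 hours across five concentrations. Here, GI50 denotes the concentration required for 50% inhibition of growth. The concentration for full growth arrest is given as TGI.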
What was measured:
Experiment in all cases: NCI-60 cell line screen, 48 h
[1] = test system: 786-0 renal
[2] = test system: A549 NSCLC
[3] = test system: ACHN renal
[4] = test system: BT-549 breast
[5] = test system: CAKI-1 renal
[6] = test system: COLO 205 colon
[7] = test system: DU-145 prostate
[8] = test system: EKVX NSCLC
[9] = test system: HCC-2998 colon
[10] = test system: HCT-116 colon
[11] = test system: HCT-15 colon
[12] = test system: HL-60(TB) leukemia
[13] = test system: HOP-62 NSCLC
[14] = test system: HOP-92 NSCLC
[15] = test system: HS 578T breast
[16] = test system: HT29 colon
[17] = test system: IGROV1 ovarian
[18] = test system: K-562 leukemia
[19] = test system: KM12 colon
[20] = test system: LOX IMVI melanoma
[21] = test system: M14 melanoma
[22] = test system: MCF7 breast
[23] = test system: MDA-MB-231 breast
[24] = test system: MDA-MB-435
[25] = test system: MOLT-4 leukemia
[26] = test system: NCI-H226 lung
[27] = test system: NCI-H23 lung
[28] = test system: NCI-H460 lung
[29] = test system: NCI-H522 lung
[30] = test system: NCI/ADR-RES ovarian
[31] = test system: OVCAR-3 ovarian
[32] = test system: OVCAR-4 ovarian
[33] = test system: OVCAR-5 ovarian
[34] = test system: OVCAR-8 ovarian
[35] = test system: PC-3 prostate
[36] = test system: RPMI-8226 leukemia
[37] = test system: RXF 393 renal
[38] = test system: SF-268 CNS
[39] = test system: SF-295 CNS
[40] = test system: SF-539 CNS
[41] = test system: SK-MEL-2 melanoma
[42] = test system: SK-MEL-28 melanoma
[43] = test system: SK-MEL-5 melanoma
[44] = test system: SK-OV-3 ovarian
[45] = test system: SN12C renal
[46] = test system: SNB-19 CNS
[47] = test system: SNB-75 CNS
[48] = test system: SR leukemia
[49] = test system: SW-620 colon
[50] = test system: T-47D breast
[51] = test system: TK-10 renal
[52] = test system: U251 CNS
[53] = test system: UACC-257 melanoma
[54] = test system: UACC-62 melanoma
[55] = test system: UO-31 renal

`COC(=O)C1=C(OC(=O)c2ccccc2)C(C(=O)OC)[C@]2(O)[C@@H](C(=O)OC)C1CC(c1ccccc1OC)[C@@H]2C(=O)OC` (stereo not given in full) was tested, and the GI50 [1] was 30.8 µM, the TGI [1] was over 100 µM and the GI50 [2] was 12.9 µM. For the same compound, the TGI [2] was 77.9 µM, the GI50 [3] was 41.9 µM and the TGI [3] was over 100 µM. The GI50 [4] was 5.58 µM, the TGI [4] was 83.6 µM and the GI50 [5] was 3.99 µM. For the same compound, the TGI [5] was over 100 µM, the GI50 [6] was 15.5 µM and the TGI [6] was over 100 µM. For the same compound, the GI50 [7] was 5.51 µM, the TGI [7] was over 100 µM and the GI50 [8] was 4.02 µM. It also gave a TGI [8] of 35.3 µM, a GI50 [9] of 17.6 µM and a TGI [9] of 34.1 µM. For the same compound, the GI50 [10] was 13.9 µM, the TGI [10] was 52.8 µM and the GI50 [11] was 30.1 µM. It also gave a TGI [11] of over 100 µM, a GI50 [12] of 14.7 µM and a TGI [12] of 67.1 µM. For the same compound, the GI50 [13] was 38.3 µM, the TGI [13] was over 100 µM and the GI50 [14] was 2.69 µM. It also gave a TGI [14] of 31 µM, a GI50 [15] of 5.98 µM and a TGI [15] of 83.4 µM. For the same compound, the GI50 [16] was 22.2 µM, the TGI [16] was over 100 µM and the GI50 [17] was 44.5 µM. It also gave a TGI [17] of over 100 µM, a GI50 [18] of 17.6 µM and a TGI [18] of over 100 µM. For the same compound, the GI50 [19] was 7.9 µM, the TGI [19] was over 100 µM and the GI50 [20] was 39.2 µM. For the same compound, the TGI [20] was over 100 µM, the GI50 [21] was 18.6 µM and the TGI [21] was 50.8 µM. It also gave a GI50 [22] of 77.5 µM, a TGI [22] of over 100 µM and a GI50 [23] of 14.7 µM. The TGI [23] was 60.2 µM, the GI50 [24] was 1.89 µM and the TGI [24] was 4.4 µM. The GI50 [25] was 5.52 µM, the TGI [25] was 37.8 µM and the GI50 [26] was 15.2 µM. The TGI [26] was 80.7 µM, the GI50 [27] was 24.2 µM and the TGI [27] was 72.7 µM. The GI50 [28] was 50.9 µM, the TGI [28] was over 100 µM and the GI50 [29] was 8.93 µM. For the same compound, the TGI [29] was over 100 µM, the GI50 [30] was 21 µM and the TGI [30] was 55.5 µM. It also gave a GI50 [31] of 2.55 µM, a TGI [31] of over 100 µM and a GI50 [32] of 4.75 µM. The TGI [32] was over 100 µM, the GI50 [33] was 41.5 µM and the TGI [33] was over 100 µM. The GI50 [34] was 18.4 µM, the TGI [34] was over 100 µM and the GI50 [35] was 9.08 µM. For the same compound, the TGI [35] was 69.2 µM, the GI50 [36] was 6.17 µM and the TGI [36] was 38.2 µM. For the same compound, the GI50 [37] was 2.53 µM, the TGI [37] was 8.65 µM and the GI50 [38] was over 100 µM. For the same compound, the TGI [38] was over 100 µM, the GI50 [39] was 5.41 µM and the TGI [39] was over 100 µM. For the same compound, the GI50 [40] was 3.45 µM, the TGI [40] was 10.8 µM and the GI50 [41] was 36.2 µM. The TGI [41] was over 100 µM, the GI50 [42] was 23.2 µM and the TGI [42] was over 100 µM. The GI50 [43] was 4.09 µM, the TGI [43] was 20.5 µM and the GI50 [44] was 5.62 µM. It also gave a TGI [44] of over 100 µM, a GI50 [45] of 10.2 µM and a TGI [45] of 51.5 µM. It also gave a GI50 [46] of 25.1 µM, a TGI [46] of over 100 µM and a GI50 [47] of 10.7 µM. It also gave a TGI [47] of over 100 µM, a GI50 [48] of 1.54 µM and a TGI [48] of 5.16 µM. For the same compound, the GI50 [49] was 15.3 µM, the TGI [49] was over 100 µM and the GI50 [50] was 22 µM. The TGI [50] was over 100 µM, the GI50 [51] was 26.5 µM and the TGI [51] was over 100 µM. For the same compound, the GI50 [52] was 37.9 µM, the TGI [52] was over 100 µM and the GI50 [53] was 5.37 µM. For the same compound, the TGI [53] was 34.8 µM, the GI50 [54] was 4.59 µM and the TGI [54] was 23.2 µM. It also gave a GI50 [55] of 13.9 µM and a TGI [55] of 50.5 µM.

From PubChem BioAssay (NCI)
